Measurements published in patent publication US11707464B2, “Methods of treating heavy menstrual bleeding” (AbbVie Inc., priority 2013, dated 2023).

Experiments:
[1] = system: premenopausal women with uterine fibroids and heavy menstrual bleeding; test: Phase 2a uterine fibroid trial: fibroid volume and uterine volume; format: in vivo, human; settings: for percent of subjects who achieved a ≥25% reduction in uterine volume: placebo 9%; for percent of subjects who achieved a ≥25% reduction in fibroid volume: placebo 29%
From the text: In another embodiment, the present invention relates to methods for reducing the fibroid volume in a subject with uterine fibroids. In one aspect, the methods of the present invention can be used to reduce the fibroid volume by greater than or equal to at least about 25%. In another aspect, the methods of the present invention can be used to reduce the fibroid volume in a subject with uterine fibroids. More specifically, the methods of the present invention can be used to reduce the fibroid volume in a subject with uterine fibroids by volume by greater than or equal to at least about 25%. In another aspect, the methods of the present invention are used to reduce the fibroid volume in a subject with uterine fibroids prior to hysterectomy, myomectomy, or uterine artery embolization. Methods for measuring fibroid volume are known in the art and include ultrasound and/or MRI.
In another embodiment, the present invention relates to methods for reducing the total uterine volume in a subject with uterine fibroids. The “total uterine volume” is the volume of the entire uterus. In one aspect, the methods of the present invention can be used to reduce the total uterine volume by greater than or equal to at least about 25%. In another aspect, the methods of the present invention can be used to reduce the total uterine volume in a subject with uterine fibroids. More specifically, the methods of the present invention can be used to reduce the total uterine volume in a subject with uterine fibroids by greater than or equal to at least about 25%. Methods for measuring total uterine volume are known in the art and include, ultrasound and/or MRI.
This example is a Phase 2a, multicenter, double-blind, placebo-controlled, randomized trial (N=280) with a 3-month treatment duration evaluating the safety and efficacy of Elagolix administered with or without Activella® in premenopausal women with uterine fibroids.
It evaluates the safety and efficacy of […] of Elagolix (100 mg BID, 200 mg BID, 200 mg BID plus low dose Activella® (a combination of 0.5 mg estradiol and 0.1 mg northindrone acetate), 300 mg BID, 300 mg BID plus 1.0 mg of Estrace and 200 mg cyclical Prometrium (collectively referred to as “EP”), 400 mg QD and 600 QD) versus placebo (PBO) to reduce uterine bleeding associated with uterine fibroids and to reduce fibroid volume and uterine volume in premenopausal women 20 to 49 years of age with heavy menstrual bleeding (HMB; >80 mL blood loss per menstrual cycle). The study involved the following six (6) cohorts:
There are a number of efficacy endpoints, but a composite endpoint consisting of two bleeding assessments was used to assess one measure of efficacy. It included the percent of subjects who achieved a menstrual blood loss (MBL) volume of <80 mL at the Final Month (last 28 days of treatment), and also achieved a ≥50% reduction in MBL volume from baseline to the Final Month (last 28 days of treatment) as measured by the Alkaline Hematin (AH) method. Eighty-five percent (85%), 97%, and 30% of subjects achieved the composite bleeding assessment endpoint in the 200 mg BID, 300 mg BID, and placebo groups, respectively (P<0.05 for 200 mg BID versus placebo in cohort 1, and 300 mg BID versus placebo in cohort 2). […]

[2] = system: women with endometriosis; test: Phase 2 endometriosis studies: bone mineral density (BMD) over 24 weeks; format: in vivo, human
Description: Changes in BMD at the lumbar spine and the femur were evaluated over 24 weeks in three Phase 2 endometriosis studies. […] While a larger effect on BMD is anticipated with a 200 or 300 mg BID regimen compared to that observed with 250 mg QD dosed for 6 months in previous studies, the magnitude of this effect is unknown.

subjects with decreases in BMD of the spine that exceeded 5% ([2]; 75 mg BID, 5/62 subjects, 24 weeks, largest study): 8.1%
largest decrease in BMD of the spine ([2]; 150 mg QD and 75 mg BID, 24 weeks, largest study): no subject exceeded −8%
subjects with decreases in BMD of the spine that exceeded 5% ([2]; 150 mg QD, 2/55 subjects, 24 weeks, largest study): 3.6%
bone loss ([2]; doses that provide partial estrogen suppression (target dose 150 mg QD)): modest degree of bone loss
Compound: COc1cccc(-c2c(C)n(Cc3c(F)cccc3C(F)(F)F)c(=O)n(C[C@H](NCCCC(=O)O)c3ccccc3)c2=O)c1F [Elagolix, 4-((R)-2-[5-(2-fluoro-3-methoxy-phenyl)-3-(2-fluoro-6-trifluoromethyl-benzyl)-4-methyl-2,6-dioxo-3,6-dihydro-2H-pyrimidin-1-yl]-1-phenyl-ethylamino)-butyric acid]
percent of subjects who achieved a ≥25% reduction in uterine volume ([1]; 200 mg BID): 50%
percent of subjects who achieved a ≥25% reduction in fibroid volume ([1]; 200 mg BID): 63%
percent of subjects who achieved a ≥25% reduction in uterine volume ([1]; 300 mg BID): 68%
percent of subjects who achieved a ≥25% reduction in fibroid volume ([1]; 300 mg BID): 55%
uterine and fibroid volumes (FIG. 4) ([1]; 300 mg BID, within 3 months): strongest effects
